Data as given in patent publication US12486267B2, “Imidazo[1,2-A]pyridine and [1,2,4]triazolo[1,5-A]pyridine derivatives as TLR9 inhibitors for the treatment of fibrosis” (BRISTOL-MYERS SQUIBB COMPANY, priority 2020, dated 2025).

Tests used:
Type in all cases: cell-based
human TLR9 = target: T1, human TLR9 (Homo sapiens, UniProt Q9NR96); test: TLR9 inhibition reporter assay (HEK-Blue cells, SEAP reporter); settings: HEK-Blue cells overexpressing human TLR9; stimulated with ODN2006 5 nM; 22 hour incubation; SEAP readout
T1 sequence (Q9NR96 26-1032): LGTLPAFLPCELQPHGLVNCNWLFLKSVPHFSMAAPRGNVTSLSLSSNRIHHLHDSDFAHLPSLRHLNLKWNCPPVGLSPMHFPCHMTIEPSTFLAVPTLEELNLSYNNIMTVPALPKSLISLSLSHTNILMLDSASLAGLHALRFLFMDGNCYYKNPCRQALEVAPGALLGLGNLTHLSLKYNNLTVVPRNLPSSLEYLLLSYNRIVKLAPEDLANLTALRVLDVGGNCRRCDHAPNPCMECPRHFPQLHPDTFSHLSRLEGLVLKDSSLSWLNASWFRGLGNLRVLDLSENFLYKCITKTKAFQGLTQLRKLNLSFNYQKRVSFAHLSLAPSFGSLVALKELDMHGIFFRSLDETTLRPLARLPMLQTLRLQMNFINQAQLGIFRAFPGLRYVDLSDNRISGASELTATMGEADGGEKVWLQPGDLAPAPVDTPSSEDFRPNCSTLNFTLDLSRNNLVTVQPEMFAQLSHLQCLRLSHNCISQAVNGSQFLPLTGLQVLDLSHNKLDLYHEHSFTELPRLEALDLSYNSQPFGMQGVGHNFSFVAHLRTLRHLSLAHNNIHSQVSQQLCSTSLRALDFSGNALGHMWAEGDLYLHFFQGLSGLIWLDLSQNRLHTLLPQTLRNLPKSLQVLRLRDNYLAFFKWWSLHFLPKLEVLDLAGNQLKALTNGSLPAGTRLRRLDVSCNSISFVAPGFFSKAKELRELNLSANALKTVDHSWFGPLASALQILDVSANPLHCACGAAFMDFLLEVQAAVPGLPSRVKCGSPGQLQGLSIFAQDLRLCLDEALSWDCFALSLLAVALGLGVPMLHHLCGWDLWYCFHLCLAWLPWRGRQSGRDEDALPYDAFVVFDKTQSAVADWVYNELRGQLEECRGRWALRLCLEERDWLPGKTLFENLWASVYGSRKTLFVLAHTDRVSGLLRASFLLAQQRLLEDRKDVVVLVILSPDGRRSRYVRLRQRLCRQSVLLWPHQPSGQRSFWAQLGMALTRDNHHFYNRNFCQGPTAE
How it was run: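 HEK-Blue cells with an NF-κB/AP-1-driven SEAP reporter were pre-treated 30 min at room temperature with compound (0.05 nM–50 μM), then stimulated with gardiquimod 7.5 μM (TLR7), R848 15.9 μM (TLR8) or ODN2006 5 nM (TLR9). After 22 h at 37 °C, SEAP was read; % inhibition was referenced to agonist+DMSO and known-inhibitor wells.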

human TLR7 = target: T2, human TLR7 (Homo sapiens, UniProt Q9NYK1); test: TLR7 inhibition reporter assay (HEK-Blue cells, SEAP reporter); settings: HEK-Blue cells overexpressing human TLR7; stimulated with gardiquimod 7.5 μM; 22 hour incubation; SEAP readout
T2 sequence (Q9NYK1 27-1049): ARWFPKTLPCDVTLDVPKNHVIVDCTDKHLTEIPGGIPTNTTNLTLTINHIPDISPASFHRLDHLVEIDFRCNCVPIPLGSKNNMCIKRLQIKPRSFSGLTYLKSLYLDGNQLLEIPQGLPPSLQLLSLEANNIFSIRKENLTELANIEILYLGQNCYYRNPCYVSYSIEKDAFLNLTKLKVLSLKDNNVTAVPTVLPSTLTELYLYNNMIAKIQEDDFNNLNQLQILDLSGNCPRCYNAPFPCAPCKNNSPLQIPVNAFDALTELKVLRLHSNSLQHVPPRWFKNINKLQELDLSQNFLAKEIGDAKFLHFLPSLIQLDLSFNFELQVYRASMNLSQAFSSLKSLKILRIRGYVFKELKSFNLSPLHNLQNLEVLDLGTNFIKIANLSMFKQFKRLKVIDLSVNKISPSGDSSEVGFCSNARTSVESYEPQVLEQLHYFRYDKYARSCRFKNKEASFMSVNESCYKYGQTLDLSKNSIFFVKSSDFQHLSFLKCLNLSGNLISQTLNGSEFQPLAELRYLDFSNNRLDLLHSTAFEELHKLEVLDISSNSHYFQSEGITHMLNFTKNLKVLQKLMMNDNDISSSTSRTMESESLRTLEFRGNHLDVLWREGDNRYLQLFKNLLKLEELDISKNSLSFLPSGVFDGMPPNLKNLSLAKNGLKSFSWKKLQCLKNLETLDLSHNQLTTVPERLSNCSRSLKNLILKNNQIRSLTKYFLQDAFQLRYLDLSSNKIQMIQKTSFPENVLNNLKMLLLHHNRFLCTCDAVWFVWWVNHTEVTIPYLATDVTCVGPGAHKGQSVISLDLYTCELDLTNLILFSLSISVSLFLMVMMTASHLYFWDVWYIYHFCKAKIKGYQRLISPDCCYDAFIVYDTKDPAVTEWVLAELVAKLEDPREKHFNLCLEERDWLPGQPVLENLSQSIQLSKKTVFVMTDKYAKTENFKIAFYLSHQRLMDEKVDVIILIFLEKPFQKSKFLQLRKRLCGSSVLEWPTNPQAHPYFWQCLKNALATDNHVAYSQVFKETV
Description: (§1) TLR7/8/9 Inhibition Reporter Assays
(§2) HEK-Blue™-cells (Invivogen) overexpressing human TLR7, TLR8 or TLR9 receptors were used for screening inhibitors of these receptors using an inducible SEAP (secreted embryonic alkaline phosphatase) reporter gene under the control of the […] minimal promoter fused to five NF-κB and AP-1-binding sites. Briefly, cells are seeded into Greiner 384 well plates (15000 cells per well for TLR7, 20,000 for TLR8 and 25,000 for TLR9) and then treated with test compounds in DMSO to yield a final dose response concentration range of 0.05 nM-50 μM. After a 30 minute compound pre-treatment at room temperature, the cells are then stimulated with a TLR7 ligand (gardiquimod at a final concentration of 7.5 μM), TLR8 ligand (R848 at a final concentration of 15.9 μM) or TLR9 ligand (ODN2006 at a final concentration of 5 nM) to activate NF-κB and AP-1 which induce the production of SEAP. After a 22 hour incubation at 37° C., 5% CO2, SEAP levels are determined with the addition of HEK-Blue™ Detection reagent (Invivogen), a cell culture medium that allows for detection of SEAP, according to manufacturer's specifications. The percent inhibition is determined as the % reduction in the HEK-Blue signal present in wells treated with agonist plus DMSO alone compared to wells treated with a known inhibitor.

human TLR8 = target: T3, human TLR8 (Homo sapiens, UniProt Q9NR97); test: TLR8 inhibition reporter assay (HEK-Blue cells, SEAP reporter); settings: HEK-Blue cells overexpressing human TLR8; stimulated with R848 15.9 μM; 22 hour incubation; SEAP readout
T3 sequence (Q9NR97 27-1041): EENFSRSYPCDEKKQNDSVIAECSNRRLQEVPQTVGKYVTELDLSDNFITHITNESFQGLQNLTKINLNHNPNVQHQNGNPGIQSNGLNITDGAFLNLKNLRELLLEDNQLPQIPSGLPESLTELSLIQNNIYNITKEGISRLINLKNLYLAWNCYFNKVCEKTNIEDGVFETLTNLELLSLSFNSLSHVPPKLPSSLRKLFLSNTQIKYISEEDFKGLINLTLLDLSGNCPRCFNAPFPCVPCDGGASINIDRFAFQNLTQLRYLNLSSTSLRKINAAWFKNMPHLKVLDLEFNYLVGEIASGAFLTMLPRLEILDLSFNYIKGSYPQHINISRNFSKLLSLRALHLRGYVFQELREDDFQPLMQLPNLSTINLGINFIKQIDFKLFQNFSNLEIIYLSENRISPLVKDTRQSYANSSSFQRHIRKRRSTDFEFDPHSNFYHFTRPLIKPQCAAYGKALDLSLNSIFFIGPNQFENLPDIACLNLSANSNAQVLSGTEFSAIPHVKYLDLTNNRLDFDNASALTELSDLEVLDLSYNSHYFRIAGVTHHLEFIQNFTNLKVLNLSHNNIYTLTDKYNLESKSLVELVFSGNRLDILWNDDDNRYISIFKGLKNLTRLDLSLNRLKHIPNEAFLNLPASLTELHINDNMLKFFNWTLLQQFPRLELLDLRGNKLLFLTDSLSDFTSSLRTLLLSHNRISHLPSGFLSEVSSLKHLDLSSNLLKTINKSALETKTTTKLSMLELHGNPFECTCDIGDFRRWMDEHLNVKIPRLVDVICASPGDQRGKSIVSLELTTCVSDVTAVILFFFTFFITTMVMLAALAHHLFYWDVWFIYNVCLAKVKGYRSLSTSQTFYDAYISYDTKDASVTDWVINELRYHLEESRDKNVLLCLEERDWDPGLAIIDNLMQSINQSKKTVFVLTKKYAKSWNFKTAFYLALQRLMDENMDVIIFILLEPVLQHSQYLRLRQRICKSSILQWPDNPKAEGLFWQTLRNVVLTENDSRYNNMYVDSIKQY
Description: as §1, §2

Row | IC50 (human TLR9) [µM] | IC50 (human TLR7) [µM] | IC50 (human TLR8) [µM] | SMILES
1 | 0.185 | 38 | > 50 | COc1ccc(-c2cn3c(n2)CCC(C2CCN(C4CCN(C(=O)C(C)C)CC4)CC2)C3)cc1OC (single isomer, unassigned) [Example 40, 1-(4-(2-(3,4-dimethoxyphenyl)-5,6,7,8-tetrahydroimidazo[1,2-a]pyridin-6-yl)-[1,4′-bipiperidin]-1′-yl)-2-methylpropan-1-one]
2 | 0.352 | > 50 | > 50 | CS(=O)(=O)c1ccc(-c2cn3c(n2)CC[C@@H](C2CCN(C4CC5CCC(C4)N5CC4CC4)CC2)C3)cc1 (single isomer, unassigned) [Example 140]
3 | 0.097 | 5.8 | 9.5 | Cc1cc(C2CCN(C3CC4CCC(C3)N4C(C)C)CC2)cn2cc(-c3ccc(S(C)(=O)=O)cc3)nc12 (single isomer, unassigned) [Example 63, 6-(1-(8-isopropyl-8-azabicyclo[3.2.1]octan-3-yl)piperidin-4-yl)-8-methyl-2-(4-(methylsulfonyl)phenyl)imidazo[1,2-a]pyridine]
4 | 9.2 | 38.5 | > 50 | Cc1cc(-c2ccc(N3CCN(C4COC4)CC3)cc2)cn2cc(-c3ccc(S(C)(=O)=O)cc3)nc12 [Example 103, 8-methyl-2-(4-(methylsulfonyl)phenyl)-6-(4-(4-(oxetan-3-yl)piperazin-1-yl)phenyl)imidazo[1,2-a]pyridine]
5 | 0.037 | 12 | > 50 | COc1ccc(-c2cn3c(n2)CCC(C2CCN(C4CCN(C(C)C)CC4)CC2)C3)cc1OC (racemic) [Example 34, 2-(3,4-dimethoxyphenyl)-6-(1′-isopropyl-[1,4′-bipiperidin]-4-yl)-5,6,7,8-tetrahydroimidazo[1,2-a]pyridine]
6 | 1.24 | 11 | > 50 | COc1ccc(-c2nc3cc(C4CCN(C5CCN(CC(C)C)CC5)CC4)ccn3n2)cc1OC [Example 61, 2-(3,4-dimethoxyphenyl)-7-(1′-isobutyl-[1,4′-bipiperidin]-4-yl)-[1,2,4]triazolo[1,5-a]pyridine]
7 | 0.034 | > 50 | > 50 | Cc1cc(C2CCN(C3CCN(CC(C)C)CC3)CC2)cn2nc(-c3ccc(S(C)(=O)=O)cc3)nc12 [Example 163, 6-(1′-isobutyl-[1,4′-bipiperidin]-4-yl)-8-methyl-2-(4-(methylsulfonyl)phenyl)-[1,2,4]triazolo[1,5-a]pyridine]
8 | 0.0043 | 1.3 | > 50 | CS(=O)(=O)c1ccc(-c2cn3cc(C4CCN(C5CCN(CC6CC6)CC5)CC4)cc(F)c3n2)cc1 [Example 109, 6-(1′-(cyclopropylmethyl)-[1,4′-bipiperidin]-4-yl)-8-fluoro-2-(4-(methylsulfonyl)phenyl)imidazo[1,2-a]pyridine]
9 | 0.078 | 15.2 | > 25 | COc1ccc(-c2cn3c(n2)CC[C@@H](C2CCN(C4CC5CCC(C4)N5C(C)C)CC2)C3)cc1OC (single isomer, unassigned) [Example 136]
10 | 0.022 | 1.5 | 20 | CS(=O)(=O)c1ccc(-c2cn3cc(C4CCN(C5CC6CCC(C5)N6C5CCC5)CC4)cc(F)c3n2)cc1 (single isomer, unassigned) [Example 117, 6-(1-(8-cyclobutyl-8-azabicyclo[3.2.1]octan-3-yl)piperidin-4-yl)-8-fluoro-2-(4-(methylsulfonyl)phenyl)imidazo[1,2-a]pyridine]
11 | 0.496 | > 50 | > 50 | CC(C)CN1CCC(N2CCC(c3cn4cc(-c5ccc(S(C)(=O)=O)cc5)nc4cc3F)CC2)CC1 [Example 123, 7-fluoro-6-(1′-isobutyl-[1,4′-bipiperidin]-4-yl)-2-(4-(methylsulfonyl)phenyl) imidazo[1,2-a]pyridine]
